Results from patent US6541514B2, “Process for the manufacture of 117Sn diethylenetriaminepentaacetic acids” (Brookhaven Science Associates, LLC, priority 2001, dated 2003).
Where two headings read alike, the source gives them in different places.

How the values were obtained:
[1] = cited from earlier work; for relief of bone pain: humans
[2] = in vivo; cited from earlier work
[3] = cited from earlier work; for myelosuppression / bone marrow toxicity: in vivo
[4] = test system: Chinese hamster V79 cells; assay: Radiotoxicity in cultured mammalian cells (colony survival); assay type: cell-based; details: 14 h labeling, 72 h at 10.5° C.
Experimental: The present study examines the radiotoxicity of composition of the invention when incorporated into cultured mammalian cells.
The cells were then resuspended in fresh culture medium and maintained at 10.5° C. on a rocker-roller for 72 h. Cells were then washed again, serially diluted, and seeded into culture dishes. After 1 week the colonies were stained and counted, the surviving fraction compared to unlabeled controls was determined.

In the case of `[89Sr+2].[Cl-].[Cl-]` [^89Sr, ^89SrCl2], the “duration of pain relief / response” value ([1]; patients) is listed as “three to six months”, the “patients with bone pain / symptom relief” value ([1]; patients) is listed as 60 to 80% and the “time to pain relief / clinical benefit after administration” value (shortened to “time to pain relief / clinical benefit”) ([1]; patients) is listed as “two to four weeks after injection”. The “biological half-life in normal bone” value [2] was 14 days, the “biological half-life in osteoblastic metastases” value [2] was “exceeds 50 days” and the “decrease in platelet count” value ([3]; four weeks after therapy) was 30%.

For “^117mSn (Sn^4+) diethylenetriaminepentaacetic acid (DTPA) [^117mSn(Sn^4+)DTPA]”, the “cellular uptake required to achieve 37% survival” value [4] is given as 0.95 mBq/cell, the “relief of bone pain” value [1] is given as “effective agent for palliation of pain caused by bone metastases” and the “relief of bone pain” value ([1]; listed as 117mSn (Sn^4+) DTPA) is given as “dose-dependent relief of bone pain”. The “bone uptake and retention compared with 32P orthophosphate, 153Sm-EDTMP, 186Re-HEDP and 89SrCl2” value [2] was “higher bone uptake and retention”, the “myelosuppression / bone marrow toxicity” value [3] was “no substantial toxicity to marrow tissues” and the “myelosuppression / bone marrow toxicity” value ([3]; listed as 117mSn (Sn^4+) DTPA) was “None of the ^117mSn (Sn^4+) DTPA compositions used in WO 95/29706 exhibited bone marrow toxicity”.

For `O=P([O-])(O)CN(CCN(CP(=O)([O-])O)CP(=O)(O)O)CP(=O)([O-])O.[153Sm+3]` [^153Sm-EDTMP, ^153Sm ethylenediaminetetramethylenephosphonate (EDTMP) complex], the “duration of pain relief / response” value ([1]; patients) is listed as “four to forty weeks”, the “time to pain relief / clinical benefit” value ([1]; patients) is listed as “within two weeks” and the “myelosuppression / bone marrow toxicity” value [3] is listed as “Reversible myelosuppression”.

In the case of `O=[32P](O)(O)O` [^32P orthophosphate], the “duration of pain relief / response” value ([1]; patients) is given as “two to four months”, the “time to pain relief / clinical benefit” value ([1]; patients) is given as “within five to fourteen days” and the “increase in uptake in bone around osseous metastases as compared to normal bone” value [2] is given as 3- to 5 fold.
